Measured values reported in patent US20240279227A1, “FUSED HETEROCYCLIC DERIVATIVES” (Janssen Sciences Ireland Unlimited Company, priority 2021, published 2024).

Legend:
HBV = experiment: Anti-HBV activity in HepG2.117 cell line (intracellular HBV DNA, real-time PCR); assay type: cell-based, hepatitis B virus; conditions: HepG2.117 cells, HBV replication induced, 3 days of treatment, intracellular HBV DNA by real-time PCR
How it was run: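 HepG2.117 cells (Tet-off, doxycycline-free HBV replication) induced for HBV replication, then exposed to serially diluted compound for 3 days. Intracellular HBV DNA quantified by real-time PCR with HBV-specific primers and probe.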

HepG2 or HepG2.117 cells = experiment: Cytotoxicity, ATPlite Luminescence Assay; assay type: cell-based, human; conditions: 3-days incubation unless marked with *, ATPlite viability
How it was run: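 Luminescent ATP quantitation served as the viability endpoint following a 3- or 4-day incubation with test compounds.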

[1] = Human liver microsome stability; assay type: in vitro ADME; conditions: 1 μM compound, NADPH 1 mM, pH 7.4, 37° C., 0-60 min; for HLM Metabolism t1/2: pooled human liver microsomes 0.5 mg/mL
How it was run: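 Pooled human liver microsomes (0.5 mg/mL) incubated at 37 °C with 1 μM compound in 0.1 M phosphate pH 7.4, 1 mM MgCl2; 1 mM NADPH starts reaction. Samples quenched in acetonitrile at 0–60 min, analysed by LC-MS against internal standard; half-life from slope of ln peak-area ratio versus time.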

Structure (SMILES) | EC50 (HBV) [µM] | CC50 (HepG2 or HepG2.117 cells) [µM] | HLM Metabolism t1/2 [1] [h] | half-life at 1 μM ([1]; human, pooled human liver microsomes, pH 7.4, pooled human liver microsomes 0.5 mg/mL, read-out: HLM Metabolism t1/2) [h]
CNC(=O)[C@@H]1CN(C(C)c2ccccn2)C(=O)c2c3c(nn21)C[C@@H](C)N(C(=O)c1ccc(Cl)c(Cl)c1)C3 (single isomer, unassigned) [Compound 37B, (3R,7S)-2-(3,4-dichlorobenzoyl)-N,3-dimethyl-10-oxo-9-((S*)-1-(pyridin-2-yl)ethyl)-1,2,3,4,7,8,9,10-octahydropyrido[4′,3′:3,4]pyrazolo[1,5-a]pyrazine-7-carboxamide] | 0.067 | > 50 | >3 | –
CNC(=O)[C@@H]1CN(C(C)c2ccc(C(C)(C)O)cn2)C(=O)c2c3c(nn21)C[C@@H](C)N(C(=O)c1ccc(Cl)c(Cl)c1)C3 (single isomer, unassigned) [Compound 39B, (3R,7S)-2-(3,4-dichlorobenzoyl)-9-((S*)-1-(5-(2-hydroxypropan-2-yl)pyridin-2-yl)ethyl)-N,3-dimethyl-10-oxo-1,2,3,4,7,8,9,10-octahydropyrido[4′,3′:3,4]pyrazolo[1,5-a]pyrazine-7-carboxamide] | 0.12 | > 50 | >3 | –
CNC(=O)[C@@H]1CN(C(C)c2ccc(NCC(F)(F)F)nc2)C(=O)c2c3c(nn21)C[C@@H](C)N(C(=O)c1ccc(Cl)c(Cl)c1)C3 (single isomer, unassigned) [Compound 33B, (3R,7S)-2-(3,4-dichlorobenzoyl)-N,3-dimethyl-10-oxo-9-((S*)-1-(6-((2,2,2-trifluoroethyl)amino)pyridin-3-yl)ethyl)-1,2,3,4,7,8,9,10-octahydropyrido[4′,3′:3,4]pyrazolo[1,5-a]pyrazine-7-carboxamide] | 0.055 | > 50 | >3 | –
CNC(=O)[C@@H]1CN(C(C)c2ccc(OC(F)F)nc2)C(=O)c2c3c(nn21)C[C@@H](C)N(C(=O)c1ccc(Cl)c(Cl)c1)C3 (single isomer, unassigned) [Compound 11A, (3R,7S)-2-(3,4-Dichlorobenzoyl)-9-((R*)-1-(6-(difluoromethoxy)pyridin-3-yl)ethyl)-N,3-dimethyl-10-oxo-1,2,3,4,7,8,9,10-octahydropyrido[4′,3′:3,4]pyrazolo[1,5-a]pyrazine-7-carboxamide] | 0.12 | > 50 | – | > 3
CNC(=O)[C@@H]1CN(C(C)c2ccc(OC(F)F)nc2)C(=O)c2c3c(nn21)C[C@@H](C)N(C(=O)c1ccc(Cl)c(Cl)c1)C3 (single isomer, unassigned) [Compound 11B, (3R,7S)-2-(3,4-dichlorobenzoyl)-9-((S*)-1-(6-(difluoromethoxy)pyridin-3-yl)ethyl)-N,3-dimethyl-10-oxo-1,2,3,4,7,8,9,10-octahydropyrido[4′,3′:3,4]pyrazolo[1,5-a]pyrazine-7-carboxamide] | 0.052 | 23.4 | >3 | –
CNC(=O)[C@@H]1CN(C(C)c2ccc(C#N)cc2)C(=O)c2c3c(nn21)C[C@@H](C)N(C(=O)c1ccc(Cl)c(Cl)c1)C3 (single isomer, unassigned) [Compound 23B, (3R,7S)-9-((S*)-1-(4-cyanophenyl)ethyl)-2-(3,4-dichlorobenzoyl)-N,3-dimethyl-10-oxo-1,2,3,4,7,8,9,10-octahydropyrido[4′,3′:3,4]pyrazolo[1,5-a]pyrazine-7-carboxamide] | 0.023 | > 50 | >3 | –
CNC(=O)[C@@H]1CN(C(C)c2ccc(OC(F)F)c(F)c2)C(=O)c2c3c(nn21)C[C@@H](C)N(C(=O)c1ccc(Cl)c(Cl)c1)C3 (single isomer, unassigned) [Compound 24B, (3R,7S)-2-(3,4-dichlorobenzoyl)-9-((S*)-1-(4-(difluoromethoxy)-3-fluorophenyl)ethyl)-N,3-dimethyl-10-oxo-1,2,3,4,7,8,9,10-octahydropyrido[4′,3′:3,4]pyrazolo[1,5-a]pyrazine-7-carboxamide] | 0.013 | 25.5 | >3 | –
CNC(=O)[C@@H]1CN(C(C)c2ccc(OC)nc2)C(=O)c2c3c(nn21)C[C@@H](C)N(C(=O)c1ccc(Cl)c(Cl)c1)C3 (single isomer, unassigned) [Compound 31B, (3R,7S)-2-(3,4-dichlorobenzoyl)-9-((S*)-1-(6-methoxypyridin-3-yl)ethyl)-N,3-dimethyl-10-oxo-1,2,3,4,7,8,9,10-octahydropyrido[4′,3′:3,4]pyrazolo[1,5-a]pyrazine-7-carboxamide] | 0.018 | > 50 | >3 | –
CNC(=O)[C@@H]1CN(C(C)c2ccc(C(F)F)nc2)C(=O)c2c3c(nn21)C[C@@H](C)N(C(=O)c1ccc(Cl)c(Cl)c1)C3 (single isomer, unassigned) [Compound 36B, (3R,7S)-2-(3,4-dichlorobenzoyl)-9-((S*)-1-(6-(difluoromethyl)pyridin-3-yl)ethyl)-N,3-dimethyl-10-oxo-1,2,3,4,7,8,9,10-octahydropyrido[4′,3′:3,4]pyrazolo[1,5-a]pyrazine-7-carboxamide] | 0.05 | > 50 | >3 | –
CNC(=O)[C@@H]1CN(C(C)c2ccc(S(=O)(=O)C3CC3)cc2)C(=O)c2c3c(nn21)C[C@@H](C)N(C(=O)c1ccc(Cl)c(C(F)(F)F)c1)C3 (single isomer, unassigned) [Compound 20B, (3R,7S)-2-(4-Chloro-3-(trifluoromethyl)benzoyl)-9-((S*)-1-(4-(cyclopropylsulfonyl)phenyl)ethyl)-N,3-dimethyl-10-oxo-1,2,3,4,7,8,9,10-octahydropyrido[4′,3′:3,4]pyrazolo[1,5-a]pyrazine-7-carboxamide] | 0.022 | > 50 | >3 | –
CCC(c1ccc(S(C)(=O)=O)cc1)N1C[C@@H](C(=O)NC)n2nc3c(c2C1=O)CN(C(=O)c1ccc(Cl)c(Cl)c1)[C@H](C)C3 (single isomer, unassigned) [Compound 22B, (3R,7S)-2-(3,4-dichlorobenzoyl)-N,3-dimethyl-9-((S*)-1-(4-(methylsulfonyl)phenyl)propyl)-10-oxo-1,2,3,4,7,8,9,10-octahydropyrido[4′,3′:3,4]pyrazolo[1,5-a]pyrazine-7-carboxamide] | 0.05 | > 50 | >3 | –
CNC(=O)[C@@H]1CN(C(C)c2ccc(-n3nnc(C)n3)cc2)C(=O)c2c3c(nn21)C[C@@H](C)N(C(=O)c1ccc(Cl)c(Cl)c1)C3 (single isomer, unassigned) [Compound 30B, (3R,7S)-2-(3,4-dichlorobenzoyl)-N,3-dimethyl-9-((S*)-1-(4-(5-methyl-2H-tetrazol-2-yl)phenyl)ethyl)-10-oxo-1,2,3,4,7,8,9,10-octahydropyrido[4′,3′:3,4]pyrazolo[1,5-a]pyrazine-7-carboxamide] | 0.017 | 17.2 | 1.52 | –
CNC(=O)[C@@H]1CN(C(C)c2cc(F)ccn2)C(=O)c2c3c(nn21)C[C@@H](C)N(C(=O)c1ccc(Cl)c(Cl)c1)C3 (single isomer, unassigned) [Compound 42B, (3R,7S)-2-(3,4-dichlorobenzoyl)-9-((S*)-1-(4-fluoropyridin-2-yl)ethyl)-N,3-dimethyl-10-oxo-1,2,3,4,7,8,9,10-octahydropyrido[4′,3′:3,4]pyrazolo[1,5-a]pyrazine-7-carboxamide] | 0.02 | > 50 | >3 | –
CNC(=O)[C@@H]1CN(C(C)c2cccc(Cl)n2)C(=O)c2c3c(nn21)C[C@@H](C)N(C(=O)c1ccc(Cl)c(Cl)c1)C3 (single isomer, unassigned) [Compound 38B, (3R,7S)-9-((S*)-1-(6-chloropyridin-2-yl)ethyl)-2-(3,4-dichlorobenzoyl)-N,3-dimethyl-10-oxo-1,2,3,4,7,8,9,10-octahydropyrido[4′,3′:3,4]pyrazolo[1,5-a]pyrazine-7-carboxamide] | 0.04 | > 50 | 2.4 | –
CNC(=O)[C@@H]1CN(C(C)c2ccc(-c3nnnn3C)cc2)C(=O)c2c3c(nn21)C[C@@H](C)N(C(=O)c1ccc(Cl)c(Cl)c1)C3 (single isomer, unassigned) [Compound 29B, (3R,7S)-2-(3,4-dichlorobenzoyl)-N,3-dimethyl-9-((S*)-1-(4-(1-methyl-1H-tetrazol-5-yl)phenyl)ethyl)-10-oxo-1,2,3,4,7,8,9,10-octahydropyrido[4′,3′:3,4]pyrazolo[1,5-a]pyrazine-7-carboxamide] | 0.082 | > 50 | >3 | –
CNC(=O)[C@@H]1CN(C(C)c2ccc(-c3c(C)noc3C)nc2)C(=O)c2c3c(nn21)C[C@@H](C)N(C(=O)c1ccc(Cl)c(Cl)c1)C3 (single isomer, unassigned) [Compound 35B, (3R,7S)-2-(3,4-dichlorobenzoyl)-9-((S*)-1-(6-(3,5-dimethylisoxazol-4-yl)pyridin-3-yl)ethyl)-N,3-dimethyl-10-oxo-1,2,3,4,7,8,9,10-octahydropyrido[4′,3′:3,4]pyrazolo[1,5-a]pyrazine-7-carboxamide] | 0.082 | > 50 | 2.17 | –
